What was measured:
Zika virus = test: Functional CPE-based assay to measure dose dependent changes in antiviral-drug inhibitory efficacy against Zika virus MR766 in Vero E6 miRFP670 cells. Cells are treated with antiviral candidates that are serially diluted. EC50 is reported via analysis of MTS assay as a readout of CPE. The assay has been performed by KU Leuven.; format: organism-based, Chlorocebus sabaeus, Vero C1008; conditions: Zika virus
dengue virus type 2 = test: Functional assay to measure dose dependent changes in antiviral-drug inhibitory efficacy against Dengue virus type 2 New Guinea C in Vero E6 miRFP670 cells (cotreated with P-gp inhibitor, CP100356). Cells are treated with antiviral candidates that are serially diluted, following infection, cells are fixed. EC50 is reported via analysis of fluorescence intensity using high-content imager. The …; format: organism-based, Chlorocebus sabaeus, Vero C1008; conditions: Dengue virus

With `NCc1cccc(NC(=O)c2cc(Cl)cc(C(N)=O)c2)c1` the EC50 (Zika virus; Vero C1008) was less than 0.391 µM, the EC90 (Zika virus; Vero C1008, Baseline response 0 %, Hill slope -0.109, Maximum measured 5.527 %, Maximum response 100 %, Minimum measured 1.124 %, R squared 0.046) was less than 0.391 µM and the EC50 (dengue virus type 2; Vero C1008) was greater than 50 µM. For the same compound, the EC90 (dengue virus type 2; Vero C1008, Maximum measured 162.876 %, Minimum measured 96.337 %, P-gp concentration 500 nM, P-gp inhibitor CP100356) was greater than 50 µM.
Compound `NCc1cc(NC(=O)c2cc(Cl)cc(NC(=O)OCc3ccccc3)c2)cc([C@@H]2C[C@H]2C(=O)O)c1` has an EC50 (Zika virus; Vero C1008) greater than 50 µM, an EC90 (Zika virus; Vero C1008, Maximum measured -4.084 %, Minimum measured -7.869 %) greater than 50 µM and an EC50 (dengue virus type 2; Vero C1008) greater than 12.5 µM. The EC90 (dengue virus type 2; Vero C1008, Maximum measured 109.098 %, Minimum measured 97.886 %, P-gp concentration 500 nM, P-gp inhibitor CP100356) was greater than 12.5 µM.
`O=C(Nc1cc(Cl)cc([C@H]2C[C@@H]2c2cccc(C3CCNCC3)c2)c1)OCc1ccccc1` showed an EC50 (Zika virus; Vero C1008) greater than 50 µM, an EC90 (Zika virus; Vero C1008, Maximum measured 2.266 %, Minimum measured -4.892 %) greater than 50 µM and an EC50 (dengue virus type 2; Vero C1008) of 1.94 µM. The EC90 (dengue virus type 2; Vero C1008, Baseline response 0 %, Hill slope -2.737, Maximum measured 87.189 %, Maximum response 100 %, Minimum measured 17.217 %, P-gp concentration 500 nM, R squared 0.653, P-gp inhibitor CP100356) was greater than 3.12 µM.
For `CCNC(=O)Nc1cc(Cl)cc(C(=O)Nc2ccc3c(c2)CNCCO3)c1`, the EC50 (Zika virus; Vero C1008) was greater than 50 µM, the EC90 (Zika virus; Vero C1008, Baseline response 0 %, Hill slope 2.475, Maximum measured 7.686 %, Maximum response 100 %, Minimum measured -0.684 %, R squared 0.693) was greater than 50 µM and the EC50 (dengue virus type 2; Vero C1008) was greater than 25 µM. The EC90 (dengue virus type 2; Vero C1008, Maximum measured 150.987 %, Minimum measured 108.938 %, P-gp concentration 500 nM, P-gp inhibitor CP100356) was greater than 25 µM.
Compound `NCc1cccc(NC(=O)c2cc(Cl)cc(C3CC3)c2)c1` has an EC50 (Zika virus; Vero C1008) of 15.7 µM, an EC90 (Zika virus; Vero C1008, Baseline response 0 %, EC90 CI (lower) 20.759 uM, EC90 CI (upper) 27.074 uM, Hill slope 5.361, Maximum measured 91.947 %, Maximum response 100 %, Minimum measured -3.838 %, R squared 0.99) of 23.7 µM and an EC50 (dengue virus type 2; Vero C1008) of 21.6 µM. It also gave an EC90 (dengue virus type 2; Vero C1008) of 24.7 µM.
Work on `OCC#C[C@H](Nc1ccc2c(c1)CNC2)c1cc(Cl)cc2[nH]ncc12` yielded an EC50 (Zika virus; Vero C1008) greater than 50 µM, an EC90 (Zika virus; Vero C1008, Baseline response 0 %, Hill slope -0.322, Maximum measured 7.802 %, Maximum response 100 %, Minimum measured -1.073 %, R squared 0.225) greater than 50 µM and an EC90 (Zika virus; Vero C1008, Maximum measured -0.957 %, Minimum measured -6.863 %) greater than 50 µM. For the same compound, the EC50 (dengue virus type 2; Vero C1008) was greater than 50 µM and the EC90 (dengue virus type 2; Vero C1008, Baseline response 0 %, Hill slope -0.86, Maximum measured 99.542 %, Maximum response 100 %, Minimum measured 57.079 %, P-gp concentration 500 nM, R squared 0.671, P-gp inhibitor CP100356) was greater than 50 µM.
`NCc1cccc(NC(=O)c2cc(Cl)cc3[nH]ncc23)c1` was tested, and the EC50 (Zika virus; Vero C1008) was greater than 50 µM, the EC90 (Zika virus; Vero C1008, Maximum measured 0.74 %, Minimum measured -1.239 %) was greater than 50 µM and the EC50 (dengue virus type 2; Vero C1008) was greater than 50 µM. The EC90 (dengue virus type 2; Vero C1008, Maximum measured 106.767 %, Minimum measured 104.405 %, P-gp concentration 500 nM, P-gp inhibitor CP100356) was greater than 50 µM.
`O=C(NC1CCCCC1)c1cc(Cl)ccc1NS(=O)(=O)c1ccc(Oc2ccccc2Cl)cc1` gave an EC50 (Zika virus; Vero C1008) greater than 50 µM, an EC90 (Zika virus; Vero C1008, Baseline response 0 %, Hill slope 0.673, Maximum measured 7.428 %, Maximum response 100 %, Minimum measured -1.415 %, R squared 0.499) greater than 50 µM and an EC50 (dengue virus type 2; Vero C1008) of 3.2 µM. The EC90 (dengue virus type 2; Vero C1008) was 3.72 µM.
`O=C(Nc1cccc(-c2nnn[nH]2)c1)c1cc(Cl)cc(C2CC2)c1` showed an EC50 (Zika virus; Vero C1008) greater than 50 µM, an EC90 (Zika virus; Vero C1008, Maximum measured 1.772 %, Minimum measured -2.796 %) greater than 50 µM and an EC50 (dengue virus type 2; Vero C1008) greater than 50 µM. It also gave an EC90 (dengue virus type 2; Vero C1008, Maximum measured 109.091 %, Minimum measured 105.083 %, P-gp concentration 500 nM, P-gp inhibitor CP100356) greater than 50 µM.
`CC(=O)NCc1cccc(NC(=O)c2cc(Cl)cc(NC(=O)OCc3ccccc3)c2)c1` showed an EC50 (Zika virus; Vero C1008) greater than 50 µM, an EC90 (Zika virus; Vero C1008, Baseline response 0 %, Hill slope 0.809, Maximum measured 24.23 %, Maximum response 100 %, Minimum measured -4.371 %, R squared 0.519) greater than 50 µM and an EC50 (dengue virus type 2; Vero C1008) of 10.4 µM. It also gave an EC90 (dengue virus type 2; Vero C1008, Baseline response 0 %, EC90 CI (lower) 4.143 uM, EC90 CI (upper) 6.94 uM, Hill slope -3.293, Maximum measured 105.977 %, Maximum response 100 %, Minimum measured 1.058 %, P-gp concentration 500 nM, R squared 0.979, P-gp inhibitor CP100356) of 20.4 µM.
Compound `CNC(=O)[C@H](Nc1cc(CN)cc(C(=O)O)c1)c1cc(Cl)cc(NC(=O)OCc2ccccc2)c1` has an EC50 (Zika virus; Vero C1008) greater than 50 µM, an EC90 (Zika virus; Vero C1008, Baseline response 0 %, Hill slope -2.362, Maximum measured 1.225 %, Maximum response 100 %, Minimum measured -2.193 %, R squared 0.027) greater than 50 µM and an EC50 (dengue virus type 2; Vero C1008) greater than 50 µM. The EC90 (dengue virus type 2; Vero C1008, Maximum measured 124.943 %, Minimum measured 103.159 %, P-gp concentration 500 nM, P-gp inhibitor CP100356) was greater than 50 µM.
With `O=C(Nc1cc(Cl)cc(C(=O)Nc2ccc3c(c2)CNCC3)c1)OCc1ccccc1` the EC50 (Zika virus; Vero C1008) was less than 0.391 µM, the EC90 (Zika virus; Vero C1008, Baseline response 0 %, Hill slope -0.286, Maximum measured 50.319 %, Maximum response 100 %, Minimum measured -3.545 %, R squared 0.037) was less than 0.391 µM and the EC50 (dengue virus type 2; Vero C1008) was 1.52 µM. For the same compound, the EC90 (dengue virus type 2; Vero C1008) was 1.8 µM.

— ChEMBL document CHEMBL5661943, “ASAP - In vitro antiviral effect” (2024)
